Measurements published in a flash point compilation (Sun et al. 2020).

Assays:
[1] = not given; remark: listed apart in the source
[2] = not given; remark: listed apart in the source
[3] = not given; remark: listed apart in the source

| flash point [2] [°C] | SMILES | further results |
| --- | --- | --- |
| – | C[Si](Cl)(Cl)CCCCl [3-Chloropropylmethyldichlorosilane] | flash point: 86 °C |
| – | CN(C)[Si](C)(C)C [(N,N-Dimethylamino)trimethylsilane] | flash point: -19 °C; flash point [1]: -18.6 °C |
| 1.00 | C=C[CH2][Ge]([CH3])([CH3])[CH3] [ALLYLTRIMETHYLGERMANE] | – |
| 51.00 | [CH3][Ge]([CH3])([CH2]Cl)[CH2]Cl [BIS(CHLOROMETHYL)DIMETHYLGERMANE] | – |
| 107.00 | CCC[CH2][Ge]([Cl])([Cl])[CH2]CCC [DI-n-BUTYLDICHLOROGERMANE] | – |
| 160.00 | [Cl][Ge]([Cl])([c]1ccccc1)[c]1ccccc1 [DIPHENYLDICHLOROGERMANE] | – |
| 104.00 | c1cc[c]([GeH2][c]2ccccc2)cc1 [DIPHENYLGERMANE] | – |
| 51.00 | C[CH2][Ge]([Cl])([Cl])[Cl] [ETHYLTRICHLOROGERMANE] | – |
| – | CC[Si](Cl)(Cl)Cl [Ethyltrichlorosilane] | flash point: 22 °C; flash point [1]: -10.00 °C |
| 14.00 | [CH3][Ge]([CH3])([CH3])[Ge]([CH3])([CH3])[CH3] [HEXAMETHYLDIGERMANE] | – |
| 63.00 | C=C(C)C(=O)O[CH2][Ge]([CH3])([CH3])[CH3] [METHACRYLOXYMETHYLTRIMETHYLGERMANE] | – |
| 10.00 | [CH3][Ge]([Cl])([Cl])[Cl] [METHYLTRICHLOROGERMANE] | – |
| – | C[SiH](Cl)Cl [Methyldichlorosilane] | flash point: -32 °C |
| – | CCC[CH2][Sn]([CH2]CCC)([CH2]CCC)[S]c1ccccc1 [PHENYLTHIOTRI-n-BUTYLTIN] | flash point [3]: 104.00 °C |
| – | Cl[SiH](Cl)c1ccccc1 [Phenyldichlorosilane] | flash point: 60 °C |
| – | C[SiH](C)c1ccccc1 [Phenyldimethylsilane] | flash point: 38 °C |
| – | C=C[CH2][Sn]([CH2]C=C)([CH2]C=C)[CH2]C=C [TETRAALLYLTIN] | flash point [3]: 75.00 °C |
| 42.00 | C[CH2][Ge]([CH2]C)([CH2]C)[CH2]C [TETRAETHYLGERMANE] | – |
| – | C[CH2][Sn]([CH2]C)([CH2]C)[CH2]C [TETRAETHYLTIN] | flash point [3]: 53.00 °C |
| – | CC[N](CC)[Sn]([N](CC)CC)([N](CC)CC)[N](CC)CC [TETRAKIS(DIETHYLAMINO)TIN] | flash point [3]: 39.00 °C |
| 34.00 | C[N](C)[Ge]([N](C)C)([N](C)C)[N](C)C [TETRAKIS(DIMETHYLAMINO)GERMANE] | – |
| 34.00 | C[O][Ge]([O]C)([O]C)[O]C [TETRAMETHOXYGERMANE] | – |
| – | C=[CH][Sn]([CH]=C)([CH]=C)[CH]=C [TETRAVINYLTIN] | flash point [3]: 40.00 °C |
| – | CCC[CH2][Sn]([CH2]CCC)([CH2]CCC)[O]C [TRI-n-BUTYLMETHOXYTIN] | flash point [3]: 98.00 °C |
| 37.00 | [CH3][Ge]([CH3])([CH3])[Br] [TRIMETHYLBROMOGERMANE] | – |
| – | [Cl][Sn]([c]1ccccc1)([c]1ccccc1)[c]1ccccc1 [TRIPHENYLCHLOROTIN] | flash point [3]: 70.00 °C |
| – | C=C[Si]1(C)[Si](C)(C=C)[Si](C)(C=C)[Si]1(C)C=C (configuration not stated) [Tetramethyltetravinylcyclotetrasilane] | flash point: 112 °C |
| 32.00 | C=[CH][Ge]([CH2]C)([CH2]C)[CH2]C [VINYLTRIETHYLGERMANE] | – |
| 34.00 | C[C](C)(C)[Ge]([CH3])([CH3])[Cl] [t-BUTYLDIMETHYLCHLOROGERMANE] | – |

| SMILES | flash point [2] [°C] | further results |
| --- | --- | --- |
| CCCC[O][Ge]([O]CCCC)([O]CCCC)[O]CCCC [TETRA-n-BUTOXYGERMANE] | 112.00 | – |
